Reference: patent publication US20250249001A1, “METHODS OF TREATING SUBSTANCE USE DISORDER WITH 4-(3-CYANOPHENYL)-6-PYRIDINYLPYRIMIDINE MGLU5 NEGATIVE ALLOSTERIC MODULATORS” (Tempero Bio, Inc., priority 2022, published 2025)

Tested on: cue-induced reinstatement of alcohol-seeking behavior in Wistar rats
Experiment: Cue-induced reinstatement of alcohol-seeking behavior
Format: in vivo
Conditions: 10 mg/kg IP
From the text: Operant alcohol self-administration training. Male Wistar rats (n=12) were trained to self-administer alcohol in two-lever operant conditioning chambers as described above. A total of n=11 rats completed the experiment. […] Fluid cups were inspected at the end of each session to verify intake. Extinction.
Cue-induced reinstatement test. On the next day, rats were given a reinstatement test in which lever press responses were followed by presentation of the cue light and auditory pump sound (as during training) but in the absence of ethanol reinforcement to examine cue-induced alcohol-seeking behavior (see Cue-induced reinstatement method FIG. 9A, right panel). One hour prior to the reinstatement session rats were divided into 2 equal subgroups groups and administered Compound 1 (0 or 10 mg/kg, IP) to determine if Compound 1 alters cue-induced reinstatement of alcohol-seeking behavior as compared to vehicle control. Groups were matched on body weight, baseline response totals, and extinction performance prior to drug testing. After this test, rats were returned to baseline conditions. […]

SMILES: N#Cc1cc(Cl)cc(-c2cc(-c3ccc(F)cn3)ncn2)c1 [Compound 1, 3-chloro-5-[6-(5-fluoropyridin-2-yl)pyrimidin-4-yl]benzonitrile]
- cue-induced reinstatement, total responses on the previously active lever (one hour prior to reinstatement session): blocked
- cue-induced reinstatement, responding relative to extinction performance (vehicle ~400% of extinction level): fully blocked
